{
  "source": "patent US20160114062A1",
  "about": "“TREATMENT OF IMMUNE, INFLAMMATORY AND DEGENERATIVE ARTHRITIDES WITH TIN-117m” (RHEUMCO LLC, priority 2013, published 2016)",
  "key": {"[1]": {"test_system": "standard arthritic rat model (collagen induced rheumatoid arthritis-like)", "experiment": "Histopathology of knees, 2nd study (HSA Sn-117m annexin)", "type": "in vivo", "conditions": "for Bone Resorption Score / Cartilage Damage Score / Inflammation Score / Pannus Score: score 0-5, 0 = normal, 5 = severe", "method": "(§1) In order to test the efficacy of the present invention, a standard arthritic rat model was employed. Specifically, rodents were injected with collagen, which induced a reaction similar to rheumatoid arthritis. […] Two different studies were conducted.\n(§2) At around day 14, the animals were sacrificed and tissues sent for histological analyses."}, "[2]": {"experiment": "Biodistribution, 2nd study (HSA Sn-117m annexin) in collagen-induced arthritic rats", "type": "in vivo, Rat", "conditions": "dose 50 (mCi), at sacrifice Day 14", "method": "as §1, §2"}, "[3]": {"conditions": "L knee (injected), ~50 uCi into L synovium"}, "[4]": {"conditions": "R knee, ~50 uCi into L synovium"}, "[5]": {"conditions": "mean of all animals, both knees, both routes, score 0-5"}},
  "note": "Values joined by “and” are separate entries in the source; they are usually repeats but may differ in a detail not shown here. Equal values may be shown once.",
  "data": [
    {"substance": "Sn-117m Annexin: High specific activity tin-117m attached to annexin V through an aminobenzyl DOTA linker", "values": [
      {"measurement": "Summed Histopathology Scores", "setting": "[1]; [3]", "result": 9},
      {"measurement": "Bone Resorption Score", "setting": "[1]; [3]", "result": 1},
      {"measurement": "Cartilage Damage Score", "setting": "[1]; [3]", "result": 2},
      {"measurement": "Inflammation Score", "setting": "[1]; [3]", "result": 5},
      {"measurement": "Pannus Score", "setting": "[1]; [3]", "result": 1},
      {"measurement": "Summed Histopathology Scores", "setting": "[1]; L knee, ~50 uCi retro-orbital", "result": "8 and 4"},
      {"measurement": "Cartilage Damage Score", "setting": "[1]; L knee, ~50 uCi retro-orbital", "result": "1 and 0.5"},
      {"measurement": "Inflammation Score", "setting": "[1]; L knee, ~50 uCi retro-orbital", "result": "5 and 3"},
      {"measurement": "Pannus Score", "setting": "[1]; L knee, ~50 uCi retro-orbital", "result": "1 and 0.5"},
      {"measurement": "Summed Histopathology Scores", "setting": "[1]; [4]", "result": "9 and 7.5"},
      {"measurement": "Bone Resorption Score", "setting": "[1]; [4]", "result": "1 and 0.5"},
      {"measurement": "Cartilage Damage Score", "setting": "[1]; [4]", "result": "2 and 1"},
      {"measurement": "Inflammation Score", "setting": "[1]; [4]", "result": 5},
      {"measurement": "Pannus Score", "setting": "[1]; [4]", "result": 1},
      {"measurement": "Cartilage Damage Score", "setting": "[1]; R knee, ~50 uCi retro-orbital", "result": 0.5},
      {"measurement": "Pannus Score", "setting": "[1]; R knee, ~50 uCi retro-orbital", "result": 0.5},
      {"measurement": "Effectiveness (in words)", "setting": "[1]; administered directly into the synovium, second study", "result": "appears to be effective"},
      {"measurement": "Summed Histopathology Scores, Mean", "setting": "[1]; mean of all animals, both knees, both routes", "result": 7.04},
      {"measurement": "Bone Resorption Score, Mean", "setting": "[1]; [5]", "result": 0.75},
      {"measurement": "Cartilage Damage Score, Mean", "setting": "[1]; [5]", "result": 1.33},
      {"measurement": "Inflammation Score, Mean", "setting": "[1]; [5]", "result": 4.04},
      {"measurement": "Pannus Score, Mean", "setting": "[1]; [5]", "result": 0.92},
      {"measurement": "Right Leg (% ID)", "setting": "[2]; L Synovium injection", "result": 0.1, "unit": "% ID"},
      {"measurement": "Left leg (% ID)", "setting": "[2]; Retro-orbital injection", "result": 0.1, "unit": "% ID"},
      {"measurement": "Right Leg (% ID)", "setting": "[2]; Retro-orbital injection", "result": 0.1, "unit": "% ID"}
    ]}
  ]
}
